Series [1] concerns pain threshold in yeast-inflamed paw. Kind of series: Randall-Selitto paw pressure assay. The series is classed as in vivo, rat. The conditions noted are these: male Wistar rats; 10 mg/kg orally; 1 h after dosing. As to the method:
The analgesic activity of the compounds of the invention is determined using the well-known Randall-Selitto assay.
The Randall-Selitto paw pressure assay measures antinociception (analgesic activity) in inflamed tissue by comparing the pressure threshold in the inflamed paw of the rat after oral administration of test drug with that in the inflamed paw of rats administered corn starch vehicle orally.
Groups of 10 male Wistar rats weighing 40–50 gms are fasted overnight prior to testing. Hyperalgesia is induced by the injection of 0.1 ml of a 20% suspension of Brewer's yeast with a 26 gauge needle into the subplantar region of the right hindpaw. The left paw is not injected and is used as the control paw for determination of hyperalgesia. Vehicle (Fortified corn starch suspension 3%) at 10 ml/kg, reference compound (diclofenac is run in every experiment at the same dose as test compounds) and test compounds at different doses suspended in vehicle at 10 ml/kg are administered orally 2 hours after the yeast injection. The threshold for paw withdrawal is quantified with a Basile Analgesy-meter 1 hour after oral administration of test compounds. The nociceptive threshold is defined as the force in grams at which the rat withdraws its foot or vocalizes. Either vocalization or foot withdrawal is recorded as a response.
The data are analyzed by comparing the mean pain threshold of the corn starch vehicle-treated group for the inflamed and non-inflamed paws to that of individual drug-treated rats. Individual rats in the drug-treated groups and positive control (diclofenac) group are called reactors if the individual pain threshold in each paw exceeds the control group mean threshold by two standard deviations of that mean. The mean pain thresholds of the inflamed paw in the control group are compared to the individual pain thresholds of the inflamed paw in the test drug group. The non-inflamed control mean pressure threshold is compared to the non-inflamed individual pressure thresholds in the test groups. Results are expressed as number of reactors in each test group (n=10) for inflamed and non-inflamed paws. Percentages are calculated by dividing number of reactors by total number of rats used for a compound.

The test system of a further series is intestinal permeability. Kind of series: intestinal tolerability (51Cr-EDTA intestinal permeability). The format is in vivo. Particulars: rat; 30 mg/kg p.o.; 51Cr-EDTA urinary excretion over 24 h. The protocol:
Intestinal tolerability can be determined by measuring the effect on intestinal permeability. Lack of increase in permeability is indicative of intestinal tolerability. The method used is a modification of a procedure by Davies, et al., Pharm. Res. 1994; 11:1652–1656 and is based on the fact that excretion of orally administered ^51Cr-EDTA, a marker of small intestinal permeability, is increased by NSAIDs. Groups of rats (≧12/group) are administered a single, oral dose of test compound or vehicle by gastric intubation. Immediately following compound dose, each rat is administered ^51Cr-EDTA (5 μCi/rat) by gastric intubation. The rats are placed in individual metabolic cages and given food and water ad libitum. Urine is collected over a 24 hour period. Twenty-four hours after administration of ^51Cr-EDTA the rats are sacrificed. To quantify compound effect on intestinal permeability, the excreted ^51Cr-EDTA measured in the urine of compound treated rats is compared to the excreted ^51Cr-EDTA measured in the urine of vehicle treated rats. Relative permeability is determined by calculating the activity present in each urine sample as a percent of the administered dose after correcting for background radiation.

A further series concerns gross gastric ulceration. Description: gastric tolerability assay. The format is in vivo. Particulars: rat; 100 mg/kg p.o.; four hours after administration. As to the method:
The gastric tolerability assay is used to assess gross ulceration in the rat, measured four hours after oral administration of the test compound. The test is carried out as follows: Rats are fasted overnight, administered compound in fortified cornstarch vehicle by gavage, and sacrificed by carbon dioxide inhalation four hours later. The stomachs are removed and gross gastric lesions counted and measured to give the total lesion length per rat. Each experiment contains the following groups (5–6 rats per group): vehicle control, test compounds, and diclofenac as a reference compound. Data are calculated as the mean number of ulcers in a group, the mean length of ulcers (mm) in the group and as the ulcer index (UI). UI=mean length of ulcers in a group×ulcer incidence where ulcer incidence is the fraction of animals in the group with lesions (100% incidence is 1).

The target in the next series is T1, cyclooxygenase-1 (COX-1) (Homo sapiens, UniProt P23219).
T1 construct: expressed in transfected cells; host or cells: human kidney epithelial cell line 293, stably transfected
T1 sequence (P23219 24-599, species assumed): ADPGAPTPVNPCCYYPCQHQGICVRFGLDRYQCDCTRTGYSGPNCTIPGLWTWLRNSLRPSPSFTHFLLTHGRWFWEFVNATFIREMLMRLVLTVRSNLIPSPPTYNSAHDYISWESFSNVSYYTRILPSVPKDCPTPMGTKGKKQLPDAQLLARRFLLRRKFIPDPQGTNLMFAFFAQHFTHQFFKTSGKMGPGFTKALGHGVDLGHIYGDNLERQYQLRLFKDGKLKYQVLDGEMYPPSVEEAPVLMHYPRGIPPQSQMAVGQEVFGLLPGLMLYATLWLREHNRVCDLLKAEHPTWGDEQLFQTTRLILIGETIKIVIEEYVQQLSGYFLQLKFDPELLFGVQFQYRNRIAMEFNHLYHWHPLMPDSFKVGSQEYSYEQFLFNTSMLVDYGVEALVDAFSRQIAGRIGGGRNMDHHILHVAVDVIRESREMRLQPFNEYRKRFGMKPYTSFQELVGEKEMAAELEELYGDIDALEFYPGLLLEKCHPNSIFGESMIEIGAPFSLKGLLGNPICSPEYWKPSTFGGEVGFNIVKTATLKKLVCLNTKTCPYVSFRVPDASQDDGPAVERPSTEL
Description: cellular COX-1 inhibition assay (293 cells stably transfected with COX-1, PGE2 radioimmunoassay). The format is cell-based. Particulars: 293 cells expressing COX-1; 30 μM compound. The protocol:
(§1) Cyclooxygenase inhibition is determined in vitro using cellular assays for inhibition of both cyclooxygenase-1 and cyclooxygenase-2.
(§2) The cellular assays for testing cyclooxygenase inhibitors are based on the fact that the cyclooxygenase enzyme (prostaglandin H synthase) catalyzes the rate limiting step in prostaglandin synthesis from arachidonic acid. Two enzymes mediate the reaction: COX-1 is a constitutive form of the enzyme whereas COX-2 is induced in response to various growth factors and cytokines. Cell lines have been established which express one form of the enzyme: a human skin fibroblast line which can be induced with IL-1 to synthesize COX-2, and the kidney epithelial cell line 293 which has been stably transfected to constitutively express COX-1. Both isoforms metabolize arachidonic acid into the stable metabolite prostaglandin E2. Arachidonic acid can be added exogenously to increase output to easily measurable levels. The levels of prostaglandin E2 in the extracellular medium are assayed by radioimmunoassay as a measure of enzyme activity. The relative activities of each isoform are compared to assess compound selectivity.
(§3) In vitro cyclooxygenase-1 (COX-1) and cyclooxygenase-2 (COX-2) inhibition is determined in the cell-based assays in order to assess the in vitro activity and selectivity for COX-2 inhibition, using a prostaglandin E2 radioimmunoassay. The cells utilized are primary human fibroblasts induced with interleukin-1 to produce COX-2, and the human kidney epithelial cell line 293 stably transfected to produce COX-1 constitutively. Cells are plated out into well plates in which the assay is performed. Fibroblasts are stimulated to synthesize COX-2 by treatment overnight with IL-1; the 293 cells require no induction. Both cell lines are pre-treated with compound dilutions for 15 minutes at 37° C., then 40 μM arachidonic acid is added as exogenous substrate for the production of PGE2, which is measured in supernatant by radioimmunoassay. […]

For the next series, the target named is T2, cyclooxygenase-2 (COX-2) (Homo sapiens, UniProt P35354).
T2 construct: endogenous in cells; host or cells: primary human skin fibroblasts induced with IL-1
T2 sequence (P35354 18-604): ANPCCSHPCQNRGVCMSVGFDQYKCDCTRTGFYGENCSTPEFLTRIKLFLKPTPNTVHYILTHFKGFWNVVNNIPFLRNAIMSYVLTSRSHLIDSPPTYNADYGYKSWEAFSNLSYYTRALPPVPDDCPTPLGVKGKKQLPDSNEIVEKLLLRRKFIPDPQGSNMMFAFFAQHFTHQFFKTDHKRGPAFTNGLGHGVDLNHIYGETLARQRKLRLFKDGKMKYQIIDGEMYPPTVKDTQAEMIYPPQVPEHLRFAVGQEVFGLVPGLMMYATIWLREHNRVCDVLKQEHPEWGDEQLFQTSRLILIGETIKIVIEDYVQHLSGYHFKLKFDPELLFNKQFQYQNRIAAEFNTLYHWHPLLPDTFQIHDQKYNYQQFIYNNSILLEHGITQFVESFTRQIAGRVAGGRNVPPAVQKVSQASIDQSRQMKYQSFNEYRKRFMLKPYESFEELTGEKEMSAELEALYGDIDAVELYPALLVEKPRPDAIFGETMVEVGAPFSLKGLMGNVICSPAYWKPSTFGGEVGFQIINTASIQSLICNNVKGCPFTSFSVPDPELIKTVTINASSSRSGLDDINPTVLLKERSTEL
Description: cellular COX-2 inhibition assay (IL-1 induced human fibroblasts, PGE2 radioimmunoassay). The conditions noted are these: primary human fibroblasts induced with IL-1, 40 μM arachidonic acid. The format is cell-based. As to the method: as §1, §2, §3

Molecules are shown by their SMILES.

Take `Cc1ccc(Nc2c(F)cccc2Cl)c(CC(=O)O)c1` [1(d), 5-methyl-2-(2′-chloro-6′-fluoroanilino)phenylacetic acid]: in series [1], the “pain threshold in the inflamed paw” value is on record as “increase the pain threshold” and the “pain threshold in the non-inflamed paw” value is “no threshold elevation”. Moreover, in the series with intestinal permeability, the “effect on intestinal permeability” value is listed as “no effect or only a minimal effect”. Further, in the series on gross gastric ulceration, the gastric ulcerogenic effect result is “essentially free of any gastric ulcerogenic effect”. Further, the “COX-1 inhibition at 30 μM” value on cyclooxygenase-1 (COX-1) is recorded as “no significant COX-1 inhibition”. Besides, the half-inhibitory concentration (IC50) against cyclooxygenase-2 (COX-2) is approximately 130 nM.
For the molecule `CCc1ccc(Nc2c(F)c(F)cc(F)c2F)c(CC(=O)O)c1` [3(a), 5-ethyl-2-(2′, 3′,5′,6′-tetrafluoroanilino)phenylacetic acid], in series [1], the “pain threshold in the inflamed paw” value was “increase the pain threshold” and the “pain threshold in the non-inflamed paw” value was “no threshold elevation”. In addition, the “effect on intestinal permeability” value in the series on intestinal permeability was “no effect or only a minimal effect”. Moreover, in the series with gross gastric ulceration, the gastric ulcerogenic effect entry is reported as “essentially free of any gastric ulcerogenic effect”. Besides, the “COX-1 inhibition at 30 μM” value at cyclooxygenase-1 (COX-1) is recorded as “no significant COX-1 inhibition”. Besides, the half-inhibitory concentration (IC50) on cyclooxygenase-2 (COX-2) is approximately 7 nM.
For `CCc1ccc(Nc2c(F)c(F)cc(F)c2F)c(CC(=O)OCC(=O)O)c1` [6(a), carboxymethyl 5-ethyl-2-(2′,3′,5′,6′-tetrafluoroanilino)phenylacetate], the melting point was 151 to 153 °C. In addition, in series [1], the “pain threshold in the inflamed paw” value was “increase the pain threshold” and the “pain threshold in the non-inflamed paw” value is recorded as “no threshold elevation”. In addition, in the series with intestinal permeability, the “effect on intestinal permeability” value is “no effect or only a minimal effect”. Moreover, the gastric ulcerogenic effect entry in the series on gross gastric ulceration is “essentially free of any gastric ulcerogenic effect”.
In the case of `Cc1ccc(Nc2c(F)cc(F)cc2Cl)c(CC(=O)O)c1` [Example 1(g), 5-methyl-2-(2′,4′-difluoro-6′-chloroanilino)phenylacetic acid], the melting point lay within 157 to 159 °C. Besides, in series [1], the “pain threshold in the inflamed paw” value was “increase the pain threshold” and the “pain threshold in the non-inflamed paw” value is on record as “no threshold elevation”. In addition, the “effect on intestinal permeability” value in the series with intestinal permeability is recorded as “no effect or only a minimal effect”. Besides, the gastric ulcerogenic effect result in the series on gross gastric ulceration was “essentially free of any gastric ulcerogenic effect”. Further, at cyclooxygenase-1 (COX-1), the “COX-1 inhibition at 30 μM” value was “no significant COX-1 inhibition”. This molecule showed an IC50 on cyclooxygenase-2 (COX-2) of approximately 250 nM.

(Values after patent publication US7115662B2, “Certain 5-alkyl-2-arylaminophenylacetic acids and derivatives” (Novartis AG, priority 1997, dated 2006).)
